Measurements reported in patent US10336701B2, “Pyridin-2-one derivatives of formula (II) useful as EP3 receptor antagonists” (Janssen Pharmaceutica NV, priority 2017, dated 2019).

How the values were obtained:
EP3 receptor [1] = target: T1, EP3 receptor (Homo sapiens, UniProt P43115); assay: [3H]-PGE2 binding assay (EP3 competition binding); conditions: read-out: [3H]-PGE2 Binding Ki
T1 construct: purchased Millipore HTS092M
T1 sequence (P43115 1-390): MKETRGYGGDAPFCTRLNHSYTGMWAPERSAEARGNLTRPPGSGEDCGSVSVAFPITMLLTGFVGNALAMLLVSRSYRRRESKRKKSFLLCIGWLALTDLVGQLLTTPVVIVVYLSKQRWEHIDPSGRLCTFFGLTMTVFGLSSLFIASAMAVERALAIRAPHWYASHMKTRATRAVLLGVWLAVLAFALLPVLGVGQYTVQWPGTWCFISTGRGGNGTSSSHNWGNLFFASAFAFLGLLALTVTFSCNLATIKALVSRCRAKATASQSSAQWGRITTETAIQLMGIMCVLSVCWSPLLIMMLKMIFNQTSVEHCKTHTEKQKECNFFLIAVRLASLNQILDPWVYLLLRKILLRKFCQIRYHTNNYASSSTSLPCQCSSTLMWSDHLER
Summary of the method: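 Scintillation-bead competition binding with EP3 membranes (2 μg/well), 2 nM [3H]-PGE2, 0.1% DMSO, in 50 mM Tris, 10 mM MgCl2, 1 mM EDTA, pH 7.4.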

EP3 receptor [2] = target: T1, EP3 receptor; assay: CHO cell cAMP assay (forskolin and sulprostone stimulated, HTRF); format: cell-based; conditions: CHO cells; sulprostone 700 nM (EC80) and FSK 2 μM (EC70), 37° C. for 30 minutes; read-out: CHO_cAMP IC50

Ki (EP3 receptor [1]) [nM]	IC50 (EP3 receptor [2]) [nM]	SMILES
28	242	CC(C)C(CC(=O)NCCN(C)C)c1ccc(-c2ccc3cccc(F)c3c2)[nH]c1=O (centres unmarked) [compound 259, N-(2-(dimethylamino)ethyl)-3-(6-(8-fluoronaphthalen-2-yl)-2-oxo-1,2-dihydropyridin-3-yl)-4-methylpentanamide]
64	179	CC1(c2ccc(-c3ccc4ccccc4c3)[nH]c2=O)CNC(=S)N1 (centres unmarked) [compound 286, 4-[2-hydroxy-6-(naphthalen-2-yl)pyridin-3-yl]-4-methylimidazolidine-2-thione]
1800	> 20000	CN(C)C1=NC(C)(c2ccc(-c3ccc4ccccc4c3)[nH]c2=O)CN1 (centres unmarked) [compound 289, 3-[2-(dimethylamino)-4-methyl-4,5-dihydro-1H-imidazol-4-yl]-6-(naphthalen-2-yl)-1,2-dihydropyridin-2-one]
14	207	CO/N=C1\NCC(c2cc(C)c(-c3ccc4cccc(F)c4c3)[nH]c2=O)(C(C)C)N1 (centres unmarked) [compound 293, (E)-6-(8-fluoronaphthalen-2-yl)-3-(4-isopropyl-2-(methoxyimino)imidazolidin-4-yl)-5-methylpyridin-2(1H)-one]

Continued, compound first:

SMILES	Ki (EP3 receptor [1]) [nM]	IC50 (EP3 receptor [2]) [nM]
CC(C)C(CC(=O)NCCO)c1ccc(-c2ccc3cccc(F)c3c2)[nH]c1=O (centres unmarked) [compound 258, 3-(6-(8-fluoronaphthalen-2-yl)-2-oxo-1,2-dihydropyridin-3-yl)-N-(2-hydroxyethyl)-4-methyl pentanamide]	8	136
CC(C)C(/C=C1\OC(=O)NC1=O)c1ccc(-c2ccc3c(ccn3C)c2)[nH]c1=O (centres unmarked) [compound 118, (Z)-5-(3-methyl-2-(6-(1-methyl-1H-indol-5-yl)-2-oxo-1,2-dihydropyridin-3-yl)butylidene)oxazolidine-2,4-dione]	44	131
O=C1NC(=O)C(CC2(c3ccc(-c4ccc5cccc(F)c5c4)[nH]c3=O)CCCC2)O1 (centres unmarked) [compound 7, 5-((1-(6-(8-fluoronaphthalen-2-yl)-2-oxo-1,2-dihydropyridin-3-yl)cyclopentyl)methyl) oxazolidine-2,4-dione]	39	149
CC(C)C(C(=O)NS(C)(=O)=O)c1ccc(-c2ccc3ccccc3c2)[nH]c1=O (centres unmarked) [compound 221, 3-methyl-N-(methylsulfonyl)-2-(6-(naphthalen-2-yl)-2-oxo-1,2-dihydropyridin-3-yl)butanamide]	51	243
O=C1NC(=O)[C@]2(CCC[C@H](c3ccc(-c4ccc5ccccc5c4)[nH]c3=O)C2)N1 (racemic) [compound 191, 7-(6-(naphthalen-2-yl)-2-oxo-1,2-dihydropyridin-3-yl)-1,3-diazaspiro[4.5]decane-2,4-dione]	5	20
NC(=O)C1(c2ccc(-c3ccc4ccccc4c3)[nH]c2=O)CCCC1 [compound 219, 1-(6-(naphthalen-2-yl)-2-oxo-2,3-dihydropyridin-3-yl)cyclopentanecarboxamide]	108	4070
CCn1cnc2ccc(-c3ccc(C(C=C4OC(=O)NC4=O)C(C)C)c(=O)[nH]3)c(F)c21 (centres unmarked) [compound 91, 5-(2-(6-(3-ethyl-4-fluoro-3H-benzo[d]imidazol-5-yl)-2-oxo-1,2-dihydropyridin-3-yl)-3-methylbutylidene)oxazolidine-2,4-dione]	> 10000	> 20000
CC(C)C(c1ccc(-c2ccc3cccc(F)c3c2)[nH]c1=O)n1ccnc1N (centres unmarked) [Compound #162, 3-(1-(2-amino-1H-imidazol-1-yl)-2-methylpropyl)-6-(8-fluoronaphthalen-2-yl)pyridin-2(1H)-one]	13	117
CCn1ncc2c(F)cc(-c3ccc(C4CCCN(S(=O)(=O)C(C)C)C4)c(=O)[nH]3)cc21 (centres unmarked) [compound 211, 6-(1-ethyl-4-fluoro-1H-indazol-6-yl)-3-(1-(isopropylsulfonyl)piperidin-3-yl)pyridin-2(1H)-one]	5	37
